According to patent publication US20260256790A1, “DEBIO-0123 IN COMBINATION WITH TEMOZOLOMIDE AND RADIOTHERAPY FOR USE IN TREATING GLIOMA” (Debiopharm International S.A., priority 2023, published 2026):
Like-named read-outs stand apart in the source and are kept apart here.

Experiments:
U251 GBM cell line = assay: Colony formation with radiotherapy, U251; format: cell-based; conditions: 0.1 μM to 5.0 μM, irradiated at 1, 2 and 4 Gy, p=0.6
Procedure: GBM tumor cells (T98G, LN18, SNB-19 and U251) were grown as an adherent monolayer at 37° C. in a humidified atmosphere (5% CO2, 95% air). For experimental use, tumor cells were detached from culture flasks by a 5-minute treatment with trypsin-versene, in Hanks' medium without calcium or magnesium and neutralized by addition of complete culture medium. Cells were counted and viability assessed using a 0.25% trypan blue exclusion assay. All cell lines were appropriately seeded following the conditions for monolayer colony formation in 6-well plates (Ref #152795, Nunc, Dutscher) in 1.9 ml of cell culture medium, at 3 densities for evaluation of a proclonogenic effect. […]
Treatments were performed at 24 hours (D1) after seeding by addition of ×20 concentrated compound or vehicle solutions, to obtain final concentrations of 0.1 μM to 5.0 μM of Compound of formula (I) [referred to as CoF (I) in FIG. 3]. […] After 14 days of incubation, colonies were counted after being stained through incubation with 500 μl of a solution of water containing 0.05% (w/v) of methylene blue (Ref. M4159, Sigma) for 2 hours. Colonies were counted using a colony counter pen (Ref #045855, Dutscher, Brumath, France). The Surviving Fraction was calculated for each condition using the equations described below and plotted on a semi-logarithmic graph using the Linear-Quadratic model. […]

[1] = Plasma, brain and CSF concentrations (PK) in healthy rats after single oral dose; format: in vivo, Wistar Han rats; conditions: 15 mg/kg p.o. single dose; for Kp: 15 mg/kg
Procedure: Healthy male Wistar Han rats were treated orally with a single dose of 15 mg/kg Compound of formula (I) (24 rats in total, 3 rats per time-point). Compound of formula (I) was formulated as a suspension in 0.5% methylcellulose with 1% Tween 80 and administered at a concentration of 1.5 mg/mL with a dosing volume of 10 mL/kg.
At designated time-points (0.5; 1; 2; 4; 8; 24; 32; 48 hrs post-dose), the rats were euthanized by carbon dioxide inhalation. Thereafter, blood, CSF, and brain samples were collected as follows. Blood samples were collected by cardiac puncture into K2EDTA containing tubes. The tubes were inverted several times, placed on ice and centrifuged within 30 min of collection (4° C. for 5 min at 6000 rpm) to obtain plasma. The plasma samples were snap frozen in dry ice and stored at −80° C. until analysis. The CSF samples were collected by using a scalp-needle to puncture the foramen magnum. The CSF samples were acidified with 10% formic acid (final sample concentration of 0.5% formic acid) and stored in −80° C. until further analysis. The brain was collected, weighed and snap frozen in dry ice until further analysis. To obtain brain homogenates, firstly water was added to each brain (brain weight:water volume=1:4) then the brain was homogenized with a H-speed dispersator (time procedure: homogenizing for 10 s and interval of 10 s per time, total 3-5 times; cleaning procedure for dispersator: Water-Methanol-Ethanol-Water, 10 s each). The brain homogenate samples were transferred to individual tubes and stored at −80° C. prior to analysis.
The samples were analyzed as follows. For each analytical batch of plasma and brain samples, the standard and quality control (QC) samples were freshly prepared in blank male Wistar Han plasma (with K2EDTA anticoagulant) and brain homogenate. Acidified (containing 0.5% formic acid) artificial CSF was used as standard and quality control for the CSF samples. Additionally, one set of blank male Wistar Han CSF was included as QC sample.
To an aliquot of each standard, QC, control blank and study samples, internal standard (^13CD6-Compound of formula (I)) in methanol/acetonitrile (1:1, v/v) was added. The samples were mixed for 1 minute and centrifuged at 4000 rpm at 4° C. for 15 minutes. Supernatants were transferred and diluted in MeOH/water (1:1, v/v, with 0.1% FA) prior to LC-MS/MS injection.
Chromatographic separation was achieved on a Shimadzu LC-20AD (for plasma and brain samples) or Shimadzu LC-30AD (for CSF samples) using a Kinetex 2.6μ C18 100A column (50 mm*3.00 mm; for plasma and brain samples) or an ACE 5 C4 column (50 mm*2.1 mm; for CSF samples). The following conditions were applied: flow rate: 0.7 mL/min; run time: 3.0 min; mobile phase: A: 5 mM NH4OAc (0.1% FA), B: Acetonitrile (0.1% FA).
Detection was accomplished with an AB Sciex 5500 utilizing electrospray MS/MS in positive ion multiple reaction monitoring mode (MRM). The MRM channels were 511.29/98 for Compound of formula (I) and 518.17/102.10 for the internal standard ^13CD6-Compound of formula (I).
The measured plasma, CSF and brain concentrations at each time-point, the nominal sample collection time, and intended dosages were used for pharmacokinetic analysis. The PK parameters of all study compounds were determined by non-compartmental analysis using WinNonlin Version 8.0 (Pharsight).

Cc1cc(Nc2ncc3c(n2)N(C)CN(c2c(Cl)cccc2Cl)C3=O)ccc1C1CCN(C)CC1 [Compound of formula (I)]
Effect on radiotherapy (surviving fraction, colony formation) (U251 GBM cell line): not significant
AUCInf, brain [1]: 8415 ng·h/g
AUCLast, brain [1]: 8383 ng·h/g
Cmax, CSF [1]: 15.6 ng/mL
Cmax, brain [1]: 588 ng/g
AUC(0-inf) ([1]; male, Wistar Han, rat, CSF, po, read-out: AUCInf, CSF): 221 ng·h/mL
AUC(0-t) ([1]; male, Wistar Han, rat, CSF, po, read-out: AUCLast, CSF): 219 ng·h/mL
Kp ([1]; male, Wistar Han, rat, CSF/unbound plasma, oral, unbound plasma from free fraction 7.8%, read-out: CSF to unbound plasma ratio based on AUCInf): 0.2
Kp ([1]; male, Wistar Han, rat, CSF/unbound plasma, oral, unbound plasma from free fraction 7.8%, read-out: CSF to unbound plasma ratio based on AUCLast): 0.2
Kp ([1]; male, Wistar Han, rat, CSF/unbound plasma, oral, unbound plasma from free fraction 7.8%, read-out: CSF to unbound plasma ratio based on Cmax): 0.18
Kp ([1]; male, Wistar Han, rat, brain/plasma, po, read-out: Brain to plasma ratio based on AUCInf): 0.6
Kp ([1]; male, Wistar Han, rat, brain/plasma, po, read-out: Brain to plasma ratio based on AUCLast): 0.6
Kp ([1]; male, Wistar Han, rat, brain/plasma, po, read-out: Brain to plasma ratio based on Cmax): 0.52
Cmax ([1]; male, Wistar Han, rat, plasma, po): 1140 ng/mL
AUC(0-inf) ([1]; male, Wistar Han, rat, plasma, po, read-out: AUCInf, plasma): 14100 ng·h/mL
AUC(0-t) ([1]; male, Wistar Han, rat, plasma, po, read-out: AUCLast, plasma): 14100 ng·h/mL
